Results on two molecules are retold here after US8552184B2, “Compounds and methods for treating disorders related to glucose metabolism” (Melior Pharmaceuticals I, Inc., priority 2008, dated 2013).

Assay [1] relates to CD1 male mice. Nature of the assay: Oral glucose tolerance test (mouse model of hyperglycemia / type II diabetes). The assay is classed as in vivo. Particulars: for Effect on blood glucose levels (in words): mouse model of hyperglycemia, high glucose load. The source says: Type II diabetes is characterized by high blood glucose levels in the presence of normal amounts of insulin. Animal models of type II diabetes involve administering high levels of glucose and measuring blood glucose levels and the ability of the experimental animal to maintain glucose homeostasis over time. Several pharmacological structural classes can effectively regulate this hyperglycemic response including sulfonylureas, thiazoladinediones (PPARγ agonists; glitazones) or metformin (glucophage). These drug classes are also clinically approved for use in humans. In one present study, a mouse model of hyperglycemia has been established by administering high levels of glucose to mice.
CD1 male mice (Harlan, Indianapolis, Ind.) of between 8 and 10 weeks of age were fasted 18 hours prior to the start of the study. All blood glucose levels were measured using an Accu-Check Aviva glucose monitors with Aviva glucose test strips from a blood drop derived from the mouse tail. Prior to any treatment, baseline levels of blood glucose were measured in fasted mice. Thirty minutes after baseline measurement, Compound 101 or vehicle was administered via intravenous administration. Thirty minutes after compound administration, animals were administered an oral solution (via gavage) of glucose in distilled water. The dose of glucose was 1.5 g/Kg of body weight. Blood glucose levels were measured 15, 30, 60, 90 and 120 minutes after glucose challenge. There were 6 mice per treatment group.
Blood glucose levels were taken from treated and untreated groups at the times above and measured for concentration of glucose in milligram per deciliter of blood of sample. Average values were calculated for each time point from each group and summarized after performing statistical analysis in Table III below:
After plotting the concentration of blood glucose level over time of treated verses non-treated groups, the area under each curve was calculated to determine the glucose exposure of the treated groups of mice over time. A Student's t test with a p value of <0.001 was performed to generate a standard deviation for the average calculated glucose exposure of the group treated with Compound 101 as compared to the group treated with vehicle alone.

For assay [2], the system named is CD1 male mice. The assay is described as above. The assay is classed as in vivo. As to conditions: area under blood glucose vs time curve; 7 mg/kg intravenous; oral glucose 1.5 g/Kg; p < 0.01 vs vehicle.

“Also recorded” adds a separate entry of the source.

Take `CN(C)C(=N)N=C(N)N` [metformin, reference compound]: in the assay on CD1 male mice [1], the “Effect on blood glucose levels (in words)” value is listed as “can effectively reduce the blood glucose load”.
With `Cc1cccc(Oc2c[nH]c(=O)[nH]c2=O)c1` [Compound 101, 5-(m-tolyloxy)pyrimidine-2,4(1H,3H)-dione], the “Blood glucose levels, AVG ± SEM” value in the assay with CD1 male mice [1] (0 min, baseline in fasted mice before treatment, Compound 101 group (7 mg/kg intravenous given at 30 min)) is 62.0 ± 13.1 mg/dL; in the assay with CD1 male mice [1] (75 minutes (15 min after oral glucose 1.5 g/Kg), 7 mg/kg intravenous, 30 min before glucose) it was 119.6 ± 36.0 mg/dL; in the assay with CD1 male mice [1] (90 minutes (30 min after oral glucose 1.5 g/Kg), 7 mg/kg intravenous, 30 min before glucose), 156.4 ± 55.9 mg/dL; in the assay on CD1 male mice [1] (120 minutes (60 min after oral glucose 1.5 g/Kg), 7 mg/kg intravenous, 30 min before glucose), 152.2 ± 33.9 mg/dL; with CD1 male mice [1] (150 minutes (90 min after oral glucose 1.5 g/Kg), 7 mg/kg intravenous, 30 min before glucose) it was 107.8 ± 34.1 mg/dL; in the assay with CD1 male mice [1] (180 minutes (120 min after oral glucose 1.5 g/Kg), 7 mg/kg intravenous, 30 min before glucose), 102.6 ± 39.9 mg/dL. Moreover, the “Effect on blood glucose levels (in words)” value with CD1 male mice [1] was “effective in reducing blood glucose levels; also recorded: effectively controls glucose levels in vivo”. Besides, the “Glucose Exposure (Area Under the Curve; AUC), blood glucose levels AUC” value with CD1 male mice [2] turned out to be 8424.7 ± 1922.5 mg·min/dL.
